Source: patent publication US11229649B2, “Methods for treating cryptosporidiosis using triazolopyridazines” (University of Vermont and State Agricultural College, priority 2015, dated 2022)
“Also recorded” adds a separate entry of the source. Like-named read-outs stand apart in the source and are kept apart here.

Columns and labels:
C. parvum Iowa strain = assay: Static or cidal assay: C. parvum persistence in HCT-8 cells at multiples of the EC90; type: cell-based, Cryptosporidium parvum; settings: compound added 24 hours after infection of HCT-8 cells (FIG. 7)
Method: HCT-8 cell monolayers are infected and parasites are allowed to replicate for 24 hours before addition of experimental drug compounds. Parasite numbers are then measured at different time points following compound addition by epifluorescence microscopy, using the same method as used in FIG. 1.
To assess if MMV665917 is cidal or static for C. parvum and determine the concentration of compound required to maximize the rate of parasite elimination, C. parvum persistence in HCT-8 colonic carcinoma cells was assayed in the presence of increasing multiples of the in vitro EC90. Briefly, the assay infects HCT-8 intestinal epithelial cells with the C. parvum Iowa strain as in Example 1. Parasites are then allowed to develop for 24 hours prior to the addition of the indicated concentration of experimental compounds (time 0 in the graphs above). At the indicated times following compound addition, samples are then fixed, the host cells and parasites are fluorescently stained, and parasites are enumerated by automated epifluorescence microscopy and image process as described in Example 1.

[1] = Mouse plasma concentration, single oral dose and simulated BID dosing; type: in vivo
Method: Compounds were dosed as indicated either orally by oral gavage or intravenously, and serum samples were collected at the indicated time points. The MMV665917 plasma concentration was measured by LC-MS/MS.
(§1) Mouse serum concentrations measured from a single 55 mg/kg oral dose of MMV665917 (see above figure) were used to simulate the mouse serum concentrations following BID dosing of either 30 mg/kg or 60 mg/kg. The measured calf plasma concentration following a single 22 mg/kg oral dose is also shown. Note that a minimum concentration of EC90 was required for parasite elimination in vitro, and the rate of parasite elimination in vitro was maximized at 3× the EC90 concentration.
as §1, with “The actual and simulated mouse and calf plasma concentrations for MMV665917, correlated to the EC90 and 3×EC90 concentrations are shown in FIG. 9. Mouse” for “Mouse”, “(FIG. 9)” for “(see above figure)”

[2] = In vitro plasma/blood stability and whole blood-to-plasma ratio; type: in vitro ADME, rat; settings: 37° C.
Method: In Vitro Determination of Plasma/Blood Stability and Whole Blood-to-Plasma Ratio. MMV665917 was spiked into fresh heparinized whole blood (collected from male Sprague Dawley rats) or plasma of a corresponding volume (which acted as a matrix control) to an initial nominal concentration of 500 ng/mL. As a whole blood assay for the compound was not available, the concentration of MMV665917 in the spiked plasma (i.e. matrix control) was used as a surrogate measurement of the spiked whole blood concentration. Whole blood samples were incubated at 37° C. for up to 240 min after which plasma and erythrocytes were separated by centrifugation prior to determination of plasma concentrations by LC-MS. Whole blood-to-plasma partitioning ratios (B/P) were obtained by dividing the measured concentration in the plasma control sample by the concentration measured in plasma following centrifugation of whole blood.

C. parvum (Iowa strain) = assay: NOD SCID gamma immunocompromised mouse model of cryptosporidiosis (fecal oocyst shedding by qPCR); type: in vivo, Cryptosporidium parvum
Source text: A NOD SCID gamma mouse model was used for in vivo testing of confirmed screening hits. NOD SCID gamma mice (Jackson Laboratories) develop Cryptosporidium parvum infection following oral gavage that is characterized by persistent infection of the small intestinal and cecal epithelium. The mice remain asymptomatic and gain weight normally. Infection is established by oral gavage of 1×10^4 C. parvum (Iowa strain) oocysts on day −6. Fecal parasite shedding is quantified by quantitative PCR of genomic DNA, using a standard curve generated by spiking oocysts into fecal samples from uninfected mice. Fecal oocyst shedding reliably becomes detectable at day 1 (1 week after infection). Experimental compounds are administered by oral gavage of 30 mg/kg in DMSO:1% HPMC (5:95) twice daily for 4 days. Parasite shedding is compared to that for infected mice treated with drug carrier alone (i.e. DMSO:1% HPMC (5:95)).
Results for treatment of C. parvum infected NOD SCID gamma mice with DMSO or selected MMV Malaria Box screening hits with confirmed in vitro activity given by oral gavage of 30 mg/kg twice daily on days 1-4 can be seen in FIG. 2. Cryptosporidium parvum infection was established on day −6. Parasite shedding is detectable in all animals on day 1. […] Other compounds and DMSO had no effect. Data shown are the mean and SE for parasites detected/mg of feces (n=4 animals per treatment group).
A repeat of the experiment presented in FIG. 2 showing efficacy of MMV665917 in the NOD SCID gamma mouse model is presented in FIG. 5. […] For this experiment, NOD SCID gamma mice were infected on day −6 by oral gavage of C. parvum oocysts, shedding was detected at day 0 prior to compound dosing, compounds or vehicle were dosed on days 0-6 as indicated, and mice were maintained for one week following cessation of treatment. Data shown are the mean and SE for the number of oocysts/mg stool detected by real time PCR of the feces on the indicated day (four mice per experimental group).

[3] = Pharmacokinetics in male Sprague Dawley rats (IV and oral); type: in vivo, rat
Method: The pharmacokinetics of MMV665917 were studied in overnight-fasted male Sprague Dawley rats that had access to water ad libitum throughout the pre- and post-dose sampling period, and access to food was re-instated 4 h (hour) post-dose. MMV665917 was administered intravenously as a 10 min (minute) constant rate infusion via an indwelling jugular vein cannula (1 mL per rat, n=2 rats) and orally by gavage (10 mL/kg per rat, n=2 rats). Samples of arterial blood and total urine were collected up to 24 h post-dose. Arterial blood was collected directly into borosilicate vials (at 4° C.) containing heparin, Complete® (a protease inhibitor cocktail), potassium fluoride, and EDTA to minimise potential for ex vivo degradation of test compound in blood/plasma samples. Once collected, blood samples were centrifuged, supernatant plasma was removed and stored frozen (−20° C.) until analysis by LC-MS. IV Formulation. MMV665917 was dissolved in propylene glycol and ethanol before Milli-Q water was added producing a clear solution. The formulation was filtered through a 0.22 μm syringe filter prior to dosing, and the measured concentration of compound the filtered solution was 0.24 mg/mL. Oral Formulation. MMV665917 was wet milled in HPMC-SV in an agate mortar and sonicated for 10 minutes producing a uniform suspension. The bulk formulation was mixed by inverting the tubes prior to drawing each dosing volume and the average measured concentration of compound in aliquots (n=3) of formulation was 0.32 mg/mL (range 0.28-0.37 mg/mL).

C. parvum = C. parvum growth inhibition in HCT-8 cells, in vitro dose response (immunofluorescence); type: cell-based; settings: Cryptosporidium parvum; C. parvum in HCT-8 cells; plate control of the screen; read-out: 90% inhibitory concentration (IC90)
Method: Materials and Methods: Cell culture and Cryptosporidium infections: The high throughput screen for C. parvum growth inhibitors was carried out using human ileocecal adenocarcinoma (HCT-8) cells (ATCC) maintained in RPMI 1640 medium with HEPES, sodium pyruvate (1 mM) and L-glutamate with 10% horse serum (ATCC) supplemented with 120 U/mL penicillin and 120 μg/mL streptomycin. HCT-8 cells were grown to confluence in 384-well, tissue culture-treated, black-walled, clear-bottom microwell plates (BD Falcon). […]
Infected monolayers were washed three times with PBS containing 111 mM D-galactose using an EL406 automated plate washer (Biotek), fixed with 4% paraformaldehyde, permeabilized with 0.25% Triton X-100 in PBS, and then blocked with 4% bovine serum albumin (BSA). Vegetative forms of C. parvum were detected by the addition of biotinylated Vicia villosa lectin (VVL; Vector Laboratories) and streptavidin-conjugated Alexa Fluor 568 (Invitrogen) diluted in PBS with 1% BSA and 0.1% Tween 20. […]
ImageJ outputs were imported into Microsoft Excel for data organization and analysis. Percent inhibition was calculated (equation 1) for each well in order to normalize the data and to facilitate the combination of data from individual biological replicates. […]

Cryptosporidium = settings: cited from earlier work
[4] = 30 mg/kg twice daily oral gavage, days 1-4 (FIG. 2)

Structure (SMILES): O=C(Nc1ccc(Cl)cc1)N1CCN(c2ccc3nncn3n2)CC1 [MMV665917]
- static or cidal for C. parvum (C. parvum Iowa strain): cidal
- intestinal absorption ([1]; mouse (FIG. 4)): slow
- serum half-life ([1]; mouse (FIG. 4)): prolonged
- systemic exposure ([1]; mouse (FIG. 4)): moderate
- plasma/serum concentration relative to the EC90 / 3×EC90 ([1]; mouse, 30 mg/kg BID, simulated from single 55 mg/kg oral dose): exceeds the EC90 for just over ½ the dosing interval; also recorded: not attained
- time to peak serum concentration ([1]; mouse, single dose (FIG. 4)): 6 h
- stability in rat plasma and whole blood ([2]; up to 240 min, 500 ng/mL): stable
- blood plasma ratio at 500 ng/mL ([2]; male, Sprague Dawley, fresh heparinized whole blood, rat blood, read-out: apparent in vitro whole blood to plasma partitioning ratio (B/P)): 1.1
- efficacy across the two experiments (C. parvum (Iowa strain); 30 mg/kg BID (effective in FIG. 2, ineffective in FIG. 5)): variable efficacy; also recorded: variably efficacious
- parasite shedding (oocysts/mg feces) (C. parvum (Iowa strain); [4]): significantly reduced parasite shedding
- persistence of reduced parasite shedding following cessation of treatment (C. parvum (Iowa strain); [4]): > 3 days
- efficacy on C. parvum shedding, repeat experiment (C. parvum (Iowa strain); 30 mg/kg twice daily oral gavage, seven days (FIG. 5)): inactive; also recorded: not effective
- efficacy on C. parvum shedding, repeat experiment (C. parvum (Iowa strain); 60 mg/kg twice daily oral gavage, seven days (FIG. 5)): eliminated detection of C. parvum shedding in the feces; also recorded: cured; also recorded: curative
- relapse over the week following cessation of treatment (C. parvum (Iowa strain); 60 mg/kg twice daily, seven days (FIG. 5)): no relapse was observed
- half-life ([3]; male, Sprague Dawley, rat, plasma, 0.24 mg per rat, rats, IV administration, read-out: apparent terminal half-life): 3 to 4 h
- bioavailability ([3]; male, Sprague Dawley, rat, plasma, po, 3.2 mg/kg, rats, oral administration, read-out: apparent oral bioavailability): 24 to 43%
- haemolysis in plasma ([3]; rat, in vivo, iv): Evidence of haemolysis was observed
- apparent volume of distribution ([3]; rats, IV administration): moderate
- in vivo clearance ([3]; rats, IV administration): low
- time plasma concentrations remained above the analytical LLQ ([3]; rats, IV administration): 16 h
- fraction of the dose recovered in urine as intact compound ([3]; rats, IV, 24 h sampling period): approximately 25%
- adverse reactions or compound related side effects ([3]; rats, following IV or oral administration): No adverse reactions or compound related side effects were observed
- absorption ([3]; rats, oral administration): slowly absorbed
- apparent terminal half-life ([3]; rats, oral administration): consistent with that observed after IV dosing
- time of maximum plasma concentrations ([3]; rats, oral administration): 5 h post-dose

Structure (SMILES): CC(=O)Oc1ccccc1C(=O)Nc1ncc([N+](=O)[O-])s1 [nitazoxanide]
- IC90 (C. parvum): 6.6 µM
- static or cidal for C. parvum (C. parvum Iowa strain): static
- efficacy in cryptosporidiosis (Cryptosporidium; AIDS patients / immunocompromised people): lacks activity
- efficacy in cryptosporidiosis (Cryptosporidium; AIDS patients / immunocompromised people, listed as Nitazoxanide): no more effective than placebo
- efficacy in cryptosporidiosis (Cryptosporidium; children): partial efficacy
- activity in the NOD SCID gamma mouse model (C. parvum (Iowa strain); dose not stated): lacks activity

Structure (SMILES): NC[C@@H]1O[C@H](O[C@H]2[C@@H](O)[C@H](O[C@@H]3[C@@H](O)[C@H](N)C[C@H](N)[C@H]3O[C@H]3O[C@H](CO)[C@@H](O)[C@H](O)[C@H]3N)O[C@@H]2CO)[C@H](N)[C@@H](O)[C@@H]1O [paromomycin, reference compound]
- relapse after treatment cessation (C. parvum (Iowa strain); 1000 mg/kg twice daily, positive control (FIG. 5)): relapsed quickly after treatment cessation
